Assays:
Assay in all cases: area over the GR curve, 72 h; higher = more effect;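 also: Dye Drop or Deep Dye Drop imaging of viable cells in 384-well plates (Hoechst nuclei, LIVE/DEAD dye), nine half-log doses, GR normalized to DMSO controls and time-zero plates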
T47D = test system: T47D
HCC1143 = test system: HCC1143
MDAMB453 = test system: MDAMB453
PDX1258 = test system: PDX1258
CAL120 = test system: CAL120
HCC1954 = test system: HCC1954
HCC1569 = test system: HCC1569
PDX1328 = test system: PDX1328
SUM229PE = test system: SUM229PE
SUM149 = test system: SUM149
MDAMB436 = test system: MDAMB436

SMILES	area over the GR curve (T47D)	area over the GR curve (HCC1143)	area over the GR curve (MDAMB453)	area over the GR curve (PDX1258)	area over the GR curve (CAL120)	area over the GR curve (HCC1954)	area over the GR curve (HCC1569)	area over the GR curve (PDX1328)	area over the GR curve (SUM229PE)	area over the GR curve (SUM149)	area over the GR curve (MDAMB436)
CN1CC[C@H](c2c(O)cc(O)c3c(=O)cc(-c4ccccc4Cl)oc23)[C@H](O)C1 [Flavopiridol] (max 1 µM)	0.274 GR	0.235 GR	0.272 GR	0.341 GR	0.229 GR	0.313 GR	0.232 GR	0.216 GR	0.3 GR	0.255 GR	0.224 GR
CC(C)n1nc(-c2ccc3oc(N)nc3c2)c2c(N)ncnc21 [INK128/MLN0128] (max 3.162 µM)	0.689 GR	0.474 GR	0.756 GR	0.449 GR	0.602 GR	0.565 GR	0.508 GR	0.745 GR	0.379 GR	0.318 GR	0.429 GR
CC(C)NC[C@@H](C(=O)N1CCN(c2ncnc3c2[C@H](C)C[C@H]3O)CC1)c1ccc(Cl)cc1 [Ipatasertib/GDC0068] (max 10 µM)	0.428 GR	0.0662 GR	0.27 GR	0.15 GR	0.13 GR	0.214 GR	0.227 GR	-0.0202 GR	0.1 GR	0.124 GR	0.104 GR
CN(C)C(=O)c1cc2cnc(Nc3ccc(N4CCNCC4)cn3)nc2n1C1CCCC1 [LEE011/Ribociclib] (max 10 µM)	0.668 GR	0.27 GR	0.555 GR	-0.124 GR	0.265 GR	0.309 GR	-0.108 GR	0.406 GR	0.221 GR	0.188 GR	-0.012 GR
CCNC(=O)c1noc(-c2cc(C(C)C)c(O)cc2O)c1-c1ccc(CN2CCOCC2)cc1 [Luminespib/NVP-AUY922] (max 1 µM)	0.51 GR	0.693 GR	0.848 GR	0.608 GR	0.693 GR	0.601 GR	0.513 GR	0.751 GR	0.729 GR	0.754 GR	0.633 GR
CCOc1cc2ncc(C#N)c(Nc3ccc(OCc4ccccn4)c(Cl)c3)c2cc1NC(=O)/C=C/CN(C)C [Neratinib/HKI272] (max 3.162 µM)	0.274 GR	0.238 GR	0.553 GR	0.154 GR	0.224 GR	0.429 GR	0.397 GR	0.314 GR	0.24 GR	0.358 GR	0.188 GR
O=C(c1cc(Cc2n[nH]c(=O)c3ccccc23)ccc1F)N1CCN(C(=O)C2CC2)CC1 [Olaparib/AZD2281] (max 10 µM)	0.0229 GR	0.0925 GR	0.241 GR	0.02 GR	0.143 GR	0.0536 GR	0.053 GR	0.0373 GR	0.0365 GR	0.184 GR	0.305 GR
CC(=O)O[C@H]1C(=O)[C@@]2(C)[C@H]([C@H](OC(=O)c3ccccc3)[C@]3(O)C[C@H](OC(=O)[C@H](O)[C@@H](NC(=O)c4ccccc4)c4ccccc4)C(C)=C1C3(C)C)[C@]1(OC(C)=O)CO[C@@H]1C[C@@H]2O [Paclitaxel] (max 1 µM)	0.661 GR	0.839 GR	0.658 GR	0.68 GR	0.746 GR	0.827 GR	0.663 GR	0.866 GR	0.91 GR	0.839 GR	0.708 GR
CS(=O)(=O)N1CCN(Cc2cc3nc(-c4cccc5[nH]ncc45)nc(N4CCOCC4)c3s2)CC1 [Pictilisib/GDC0941] (max 10 µM)	0.477 GR	0.32 GR	0.391 GR	0.23 GR	0.255 GR	0.309 GR	0.346 GR	0.296 GR	0.137 GR	0.117 GR	0.133 GR
O=C1NC(=NCc2cccs2)SC1=Cc1ccc2ncccc2c1 [R0-3306] (max 10 µM)	0.14 GR	0.262 GR	0.102 GR	0.0971 GR	0.0133 GR	0.0716 GR	0.022 GR	0.112 GR	0.0926 GR	0.106 GR	0.0623 GR
CNCc1ccc(-c2[nH]c3cc(F)cc4c3c2CCNC4=O)cc1 [Rucaparib] (max 10 µM)	0.0635 GR	0.0731 GR	0.14 GR	0.204 GR	0.125 GR	0.059 GR	-0.0162 GR	0.151 GR	0.047 GR	0.2 GR	0.399 GR
CC1(N)CCN(c2cnc(-c3cccc(Cl)c3Cl)c(N)n2)CC1 [SHP099] (max 10 µM)	0.0099 GR	0.0677 GR	0.0286 GR	-0.0325 GR	-0.0004 GR	0.0791 GR	-0.114 GR	0.0593 GR	-0.0033 GR	0.001 GR	-0.0036 GR

Reference: the supplement of paper PMC9663587
